Entries after “also recorded” stand apart in the source; their conditions may differ.
Assays:
[1] = Equilibrium solubility in full range (fasted to fed) design of experiment simulated intestinal media; format: physicochemical; details: for Comparison of combined fasted and fed solubility data with the full range DoE: Mann-Whitney test on equilibrium solubility distributions; for Comparison between all solubility data sets (fasted, fed, combined, full range) / Comparison of published fasted DoE solubility distribution with full range DoE / Comparison of published fed DoE solubility distribution with full range DoE: Mann-Whitney test; for Comparison between all solubility data sets (fasted, fed, combined, full range): Fig. 2b; for Variability of equilibrium solubility values: Fig. 1 and 2; for Effect of pH on equilibrium solubility: pH 5 to 7; for Comparison of published fasted DoE solubility distribution with full range DoE: fasted state; for Comparison of published fed DoE solubility distribution with full range DoE: fed state
Text: A quarter of the full factorial design of experiment with 7 factors (either a component concentration or a system parameter such as pH) and 2 levels (upper and lower limits) was constructed and analysed using Minitab®17.2.1. Minitab generated 32 different experiments by various combinations of the upper and lower limits of the 7 factors based on Table 1 (no centre point and no replicate). When designing and analysing the DoE assumptions were made. […] Only main effects and 2-way interactions are considered in the analysis and 3-way interactions or more were not considered. […] The single factors and factor interactions are confounded with 3 to 6-way interactions which were not included. There are three confounded 2-way factor interactions, sodium oleate and salt with buffer and monoglyceride, sodium oleate and buffer with salt and monoglyceride, sodium oleate and monoglyceride with salt and buffer. For these interactions if the result is significant then any conclusions must be drawn with caution as it might be the result of the four factors together or only one of the 2 way interactions. […] The main effect can be positive (+) or negative (−), but when it is involved in an interaction, the conclusion will be considered with the interactions (±).
The Kolmogorov normality test was used in Minitab® to assess the distribution of each data set, based on the result that all data sets have a non-normal distribution the Mann-Whitney test was applied to evaluate differences between two data sets.
A stream of nitrogen gas was used to remove the chloroform ensuring a dry film was produced. Water was added to reform the dried film, stirred to obtain a homogenous mixture, transferred to a volumetric flask (5 ml) and made to volume with water.
Salt and buffer stock solution: Sodium chloride (4.448 g) and monosodium phosphate (NaH2PO4) (2.395 g) were weighed into a 25 ml volumetric flask, dissolved and made up to the volume with water.
Sodium oleate: Sodium oleate (1.978 g) was weighed into a 25 ml volumetric flask, dissolved in water under gentle heat and made to final volume. Solution was then kept at 50 °C to aid solubilisation.
The concentration of each stock mixture has been designed to be 15 times greater than the upper limit concentration value required for the DoE, with the exception of sodium oleate where only a 5 times concentration was possible. The stock mixtures were combined to provide the 32 measurement solutions according to the DoE model.
This protocol has been previously validated to ensure equilibrium solubility is achieved after 24 h with no methodological interference ([Khadra et al., 2015], [Zhou et al., 2017]). A weight of powdered drug (10 mg) was added to a centrifuge tube (15 ml Corning®). The required volume of each stock solution (section above) and water was added to provide a final volume of 4 ml in every tube. pH was then adjusted to 5 or 7 using 0.1 M HCL or 0.1 M KOH. Tubes were shaken for 1 h at room temperature and then pH adjusted again as before. Tubes are then placed in an orbital shaker and incubated for 24 h at 37 °C and 240 rpm. Following incubation the tubes were checked for the presence of solid drug, then centrifuged (13,000 rpm, 5 min) and the supernatant (500 μl) was sampled to determine the solubilised drug concentration by HPLC.

[2] = set-up: method as in Zhou et al., 2017; details: fed media design of experiment; ref Zhou et al., 2017; cited from earlier work
[3] = quoted without reference; cited from earlier work
[4] = set-up: method as in Khadra et al., 2015; details: ref Khadra et al., 2015, cited from earlier work; for Statistical significance of DoE factor Bile Salt on equilibrium solubility, Fstd / Statistical significance of DoE factor Oleate on equilibrium solubility, Fstd / Statistical significance of DoE factor pH on equilibrium solubility, Fstd / Statistical significance of DoE factor Lecithin on equilibrium solubility, Fstd / Statistical significance of DoE factor Buffer on equilibrium solubility, Fstd / Statistical significance of DoE factor Salt on equilibrium solubility, Fstd: fasted media design of experiment; for Effect of buffer on equilibrium solubility in the fasted study: fasted DoE
[5] = cited from earlier work; for pKa: quoted without reference
[6] = full range DoE, standardised effect
[7] = full range media design of experiment, p < 0.05

Compound | Comparison of combined fasted and fed solubility data with the full range DoE [1] | Variability of equilibrium solubility values ([1]; full range DoE) | Effect of sodium oleate on equilibrium solubility [1, 6] | Effect of pH on equilibrium solubility [1, 6] | Statistical significance of DoE factor Oleate on equilibrium solubility, Full [1, 7] | Statistical significance of DoE factor pH on equilibrium solubility, Full [1, 7] | Effect of bile salt on equilibrium solubility [1, 6] | Statistical significance of DoE factor Bile Salt on equilibrium solubility, Full [1, 7] | Statistical significance of DoE factor Bile Salt on equilibrium solubility, Fed [2] | Statistical significance of DoE factor Oleate on equilibrium solubility, Fed [2] | Statistical significance of DoE factor pH on equilibrium solubility, Fed [2] | log P [3] | Statistical significance of DoE factor Bile Salt on equilibrium solubility, Fstd [4] | Statistical significance of DoE factor Oleate on equilibrium solubility, Fstd [4] | Statistical significance of DoE factor pH on equilibrium solubility, Fstd [4] | Statistical significance of DoE factor Lecithin on equilibrium solubility, Fstd [4] | Statistical significance of DoE factor Buffer on equilibrium solubility, Fstd [4] | further results
C[C@@H](O[C@H]1OCCN(Cc2n[nH]c(=O)[nH]2)[C@H]1c1ccc(F)cc1)c1cc(C(F)(F)F)cc(C(F)(F)F)c1 [Aprepitant, aprepitant] | significantly different | more consistency | positively affected | significant effect | S | S | – | – | S | S | S | 4.5 | S | S | S | – | – | Comparison between all solubility data sets (fasted, fed, combined, full range) [1]: statistically significant difference between all data sets; Statistical significance of DoE factor Buffer on equilibrium solubility, Fed [2]: S; Statistical significance of DoE factor Lecithin on equilibrium solubility, Fed [2]: S; Statistical significance of DoE factor Salt on equilibrium solubility, Fed [2]: S
CCOC(=O)C1=C(C)NC(C)=C(C(=O)OC)C1c1cccc(Cl)c1Cl (stereo not shown) [Felodipine, felodipine] | significantly different | large variability | positive effect | affected | S | S | positive effect | S | S | S | S | 3.8 | S | S | S | S | – | Comparison of published fed DoE solubility distribution with full range DoE [1]: statistically equivalent; Effect of lecithin on equilibrium solubility [1, 6]: affected; Statistical significance of DoE factor Lecithin on equilibrium solubility, Full [1, 7]: S; Statistical significance of DoE factor Lecithin on equilibrium solubility, Fed [2]: S
O=C1NC(=O)C(c2ccccc2)(c2ccccc2)N1 [Phenytoin, phenytoin] | no significant difference | more consistency; also recorded: very consistent | – | – | S | S | – | – | S | S | S | – | S | S | S | S | S | Comparison of published fasted DoE solubility distribution with full range DoE [1]: statistically equivalent; Statistical significance of DoE factor Monoglyceride on equilibrium solubility, Fed [2]: S; Effect of buffer on equilibrium solubility in the fasted study [4]: positive effect; Statistical significance of DoE factor Salt on equilibrium solubility, Fstd [4]: S
CC(C)(Sc1cc(C(C)(C)C)c(O)c(C(C)(C)C)c1)Sc1cc(C(C)(C)C)c(O)c(C(C)(C)C)c1 [Probucol, probucol] | no significant difference | – | – | – | – | – | – | – | – | – | – | 10.9 | – | – | – | – | – | Influence of any DoE factor on equilibrium solubility ([1]; full range DoE): not significantly influenced by any of the factors
CN1CC(=O)N2[C@H](c3ccc4c(c3)OCO4)c3[nH]c4ccccc4c3C[C@@H]2C1=O [Tadalafil, tadalafil] | significantly different | large variability | positively affected | not | S | – | positively affects | S | S | S | – | – | S | S | S | S | S | Comparison between all solubility data sets (fasted, fed, combined, full range) [1]: statistically significant difference between all data sets; Statistical significance of DoE factor Salt on equilibrium solubility, Fstd [4]: S; pKa [5]: 10
CCCCCCCC/C=C\CCCCCCCC(=O)O [oleate, Sodium oleate] | – | – | – | – | – | – | – | – | – | – | – | – | – | – | – | – | – | pKa of acidic media factors ([5]; ref Holm et al., 2013): approximately 5

Continued, in another order:

Comparison of combined fasted and fed solubility data with the full range DoE [1] | Variability of equilibrium solubility values ([1]; full range DoE) | Effect of sodium oleate on equilibrium solubility [1, 6] | Effect of pH on equilibrium solubility [1, 6] | Statistical significance of DoE factor Oleate on equilibrium solubility, Full [1, 7] | Statistical significance of DoE factor pH on equilibrium solubility, Full [1, 7] | Effect of bile salt on equilibrium solubility [1, 6] | Statistical significance of DoE factor Bile Salt on equilibrium solubility, Full [1, 7] | Compound | Statistical significance of DoE factor Bile Salt on equilibrium solubility, Fed [2] | Statistical significance of DoE factor Oleate on equilibrium solubility, Fed [2] | Statistical significance of DoE factor pH on equilibrium solubility, Fed [2] | log P [3] | Statistical significance of DoE factor Bile Salt on equilibrium solubility, Fstd [4] | Statistical significance of DoE factor Oleate on equilibrium solubility, Fstd [4] | Statistical significance of DoE factor pH on equilibrium solubility, Fstd [4] | Statistical significance of DoE factor Lecithin on equilibrium solubility, Fstd [4] | Statistical significance of DoE factor Buffer on equilibrium solubility, Fstd [4] | further results
no significant difference | – | positively affected | significant effect | S | S | – | – | COc1ccccc1OCCNCC(O)COc1cccc2[nH]c3ccccc3c12 (stereo not shown) [Carvedilol, carvedilol] | S | S | S | – | S | S | S | S | – | Comparison of published fasted DoE solubility distribution with full range DoE [1]: statistically equivalent; Statistical significance of DoE factor Buffer on equilibrium solubility, Fed [2]: S; Statistical significance of DoE factor Monoglyceride on equilibrium solubility, Fed [2]: S
no significant difference | larger variability | – | – | S | S | – | S | COc1ccc2c(c1)c(CC(=O)O)c(C)n2C(=O)c1ccc(Cl)cc1 [Indomethacin, indomethacin] | S | S | S | – | S | S | S | – | S | Effect of buffer on equilibrium solubility in the fasted study [4]: negative effect
no significant difference | – | – | significant effect | – | S | positively affects | S | COc1cc(C(=O)NS(=O)(=O)c2ccccc2C)ccc1Cc1cn(C)c2ccc(NC(=O)OC3CCCC3)cc12 [Zafirlukast, zafirlukast] | S | – | S | – | S | S | S | S | – | Comparison of published fed DoE solubility distribution with full range DoE [1]: statistically equivalent; pKa [5]: 4.3
